pIC50: −log10 of the molar value.
How the values were obtained:
BTK wildtype protein = BTK wildtype protein (Homo sapiens (Human), UniProt Q06187); assay: BTK wildtype HTRF displacement assay; assay type: binding; settings: 1-hour incubation; read-out: BTK (wt) IC50
Procedure, shortened: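 Full-length N-terminal GST-tagged BTK incubated 1 h at room temperature with compound (6 doses, four-fold dilutions from 5 μM top) plus kinase tracer 239 and anti-GST-Tb antibody. Tracer displacement read as TR-FRET 665/620 ratio, background-subtracted using no-protein control. IC50 from four-parameter fit constrained 0–100% inhibition.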

BTK C481S protein = BTK C481S protein (Homo sapiens (Human), UniProt Q06187, C481S); assay: BTK C481S HTRF displacement assay; assay type: binding; settings: 1-hour incubation
BTK C481S protein, sequence (Q06187 2-659 C481S): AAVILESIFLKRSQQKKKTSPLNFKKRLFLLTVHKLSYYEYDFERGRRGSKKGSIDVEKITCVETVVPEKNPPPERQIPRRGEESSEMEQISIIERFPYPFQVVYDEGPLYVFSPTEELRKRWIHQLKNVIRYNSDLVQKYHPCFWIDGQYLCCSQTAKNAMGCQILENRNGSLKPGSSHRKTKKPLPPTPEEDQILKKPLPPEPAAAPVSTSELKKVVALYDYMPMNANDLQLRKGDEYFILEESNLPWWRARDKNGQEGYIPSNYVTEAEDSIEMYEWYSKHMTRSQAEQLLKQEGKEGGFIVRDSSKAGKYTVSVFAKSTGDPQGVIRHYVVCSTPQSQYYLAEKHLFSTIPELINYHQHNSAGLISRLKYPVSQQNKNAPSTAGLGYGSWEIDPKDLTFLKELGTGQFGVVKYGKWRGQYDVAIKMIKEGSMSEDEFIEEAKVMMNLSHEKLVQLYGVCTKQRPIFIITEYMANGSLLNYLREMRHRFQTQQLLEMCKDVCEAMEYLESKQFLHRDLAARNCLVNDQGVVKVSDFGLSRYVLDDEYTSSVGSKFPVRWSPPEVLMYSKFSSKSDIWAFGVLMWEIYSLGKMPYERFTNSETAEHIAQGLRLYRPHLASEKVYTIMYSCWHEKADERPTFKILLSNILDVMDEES
Procedure, shortened: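 N-terminal GST-tagged BTK C481S (2-659) incubated 1 hour at room temperature with compound (6 doses, four-fold from 5 μM), 50 nM kinase tracer 239 and anti-GST-Tb antibody. TR-FRET 665/620 ratio, background-subtracted; IC50 from constrained four-parameter fit. KI=IC50/(1+[Tracer]/Kd), tracer Kd 54 nM.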

BTK wildtype protein, sequence (Q06187 2-659): as the sequence (Q06187 2-659 C481S) above, with S480C counted along it

pIC50 (BTK wildtype protein)	pIC50 (BTK C481S protein)	Compound
≥ 6.00	≥ 6.00	COc1ccc(F)cc1C(=O)NCc1ccc(-c2nn(CC3CCN(C(=O)n4cncn4)C3)c3ncnc(N)c23)cc1 (stereo not drawn) [Compound 245, N-(4-(1-((1-(1H-1,2,4-triazole-1-carbonyl)pyrrolidin-3-yl)methyl)-4-amino-1H-pyrazolo[3,4-d]pyrimidin-3-yl)benzyl)-5-fluoro-2-methoxybenzamide]
< 6.00	< 6.00	COc1ccc(F)cc1C(=O)NCc1ccc(-c2nn(C[C@@H]3C[C@@H](O)CN3C(=O)n3cncn3)c3ncnc(N)c23)cc1 [Compound 224, N-(4-(4-amino-1-(((2S,4R)-4-hydroxy-1-(1H-1,2,4-triazole-1-carbonyl)pyrrolidin-2-yl)methyl)-1H-pyrazolo[3,4-d]pyrimidin-3-yl)benzyl)-5-fluoro-2-methoxybenzamide]
≥ 6.00	≥ 6.00	COc1ccc(F)cc1C(=O)NCc1ccc(-c2nn(C[C@@H]3C[C@H](O)CN3C(=O)n3cncn3)c3ncnc(N)c23)cc1 [Compound 241, N-(4-(4-amino-1-(((2S,4S)-4-hydroxy-1-(1H-1,2,4-triazole-1-carbonyl)pyrrolidin-2-yl)methyl)-1H-pyrazolo[3,4-d]pyrimidin-3-yl)benzyl)-5-fluoro-2-methoxybenzamide]
≥ 6.00	≥ 6.00	COc1ccc(F)cc1C(=O)NCc1ccc(-c2nn(CC3CCC3N(C)C(=O)n3cncn3)c3ncnc(N)c23)cc1 (stereo not drawn) [Compound 209, N-(2-((4-amino-3-(4-((5-fluoro-2-methoxybenzamido)methyl)phenyl)-1H-pyrazolo[3,4-d]pyrimidin-1-yl)methyl)cyclobutyl)-N-methyl-1H-1,2,4-triazole-1-carboxamide]
< 6.00	< 6.00	COc1ccc(F)cc1C(=O)NCc1ccc(-c2nn(CC3CC(C)CCN3C(=O)n3cncn3)c3ncnc(N)c23)cc1 (stereo not drawn) [Compound 112, N-(4-(4-amino-1-((4-methyl-1-(1H-1,2,4-triazole-1-carbonyl)piperidin-2-yl)methyl)-1H-pyrazolo[3,4-d]pyrimidin-3-yl)benzyl)-5-fluoro-2-methoxybenzamide]
≥ 6.00	< 6.00	COc1ccc(F)cc1C(=O)NCc1ccc(-c2nn(C3(CN(C)C(=O)n4cnc(C#N)n4)CC3)c3ncnc(N)c23)cc1 [Compound 117, N-((1-(4-amino-3-(4-((5-fluoro-2-methoxybenzamido)methyl)phenyl)-1H-pyrazolo[3,4-d]pyrimidin-1-yl)cyclopropyl)methyl)-3-cyano-N-methyl-1H-1,2,4-triazole-1-carboxamide]
≥ 6.00	≥ 6.00	COc1ccc(F)cc1C(=O)NCc1ccc(-c2nn(C[C@H]3CCN3C(=O)n3cncn3)c3ncnc(N)c23)cc1 [Compound 108, (R)-N-(4-(1-((1-(1H-1,2,4-triazole-1-carbonyl)azetidin-2-yl)methyl)-4-amino-1H-pyrazolo[3,4-d]pyrimidin-3-yl)benzyl)-5-fluoro-2-methoxybenzamide]

More lines, now with the values behind:

Compound	pIC50 (BTK wildtype protein)	pIC50 (BTK C481S protein)
COc1ccc(F)cc1C(=O)NCc1ccc(-c2nn(CC3CN(C(C)=O)CCN3C(=O)n3cncn3)c3ncnc(N)c23)cc1 (stereo not drawn) [Compound 313, N-(4-(1-((4-acetyl-1-(1H-1,2,4-triazole-1-carbonyl)piperazin-2-yl)methyl)-4-amino-1H-pyrazolo[3,4-d]pyrimidin-3-yl)benzyl)-5-fluoro-2-methoxybenzamide]	< 6.00	< 6.00
NC(=O)c1c(-c2ccc(Oc3ccccc3)cc2)nn(C2CCC3(C2)CN(C(=O)n2cncn2)C3)c1N (stereo not drawn) [Compound 165, 1-(2-(1H-1,2,4-triazole-1-carbonyl)-2-azaspiro[3.4]octan-6-yl)-5-amino-3-(4-phenoxyphenyl)-1H-pyrazole-4-carboxamide]	≥ 6.00	≥ 6.00
COc1ccc(F)cc1C(=O)NCc1ccc(-c2nn(CC3CCCCC3N(C)C(=O)n3cncn3)c(N)c2C(N)=O)cc1 (stereo not drawn) [Compound 229, N-(2-((5-amino-4-carbamoyl-3-(4-((5-fluoro-2-methoxybenzamido)methyl)phenyl)-1H-pyrazol-1-yl)methyl)cyclohexyl)-N-methyl-1H-1,2,4-triazole-1-carboxamide]	≥ 6.00	≥ 6.00
NC(=O)c1nn2c(C3CCCCN3C(=O)n3cncn3)ccnc2c1-c1ccc(Oc2ccccc2)cc1 (stereo not drawn) [Compound 277, 7-(1-(1H-1,2,4-triazole-1-carbonyl)piperidin-2-yl)-3-(4-phenoxy-phenyl)pyrazolo[1,5-a]pyrimidine-2-carboxamide]	< 6.00	< 6.00
COc1ccc(F)cc1C(=O)NCc1ccc(-c2nn(CC3CCC(O)CN3C(=O)n3cncn3)c3ncnc(N)c23)cc1 (stereo not drawn) [Compound 246, N-(4-(4-amino-1-((5-hydroxy-1-(1H-1,2,4-triazole-1-carbonyl)piperidin-2-yl)methyl)-1H-pyrazolo[3,4-d]pyrimidin-3-yl)benzyl)-5-fluoro-2-methoxybenzamide]	≥ 6.00	≥ 6.00
CN(C(=O)n1cncn1)C1CCCC1C1CCNc2c(C(N)=O)c(-c3ccc(Oc4ccccc4)cc3)nn21 (stereo not drawn) [Compound 235, 7-(2-(N-methyl-1H-1,2,4-triazole-1-carboxamido)cyclopentyl)-2-(4-phenoxyphenyl)-4,5,6,7-tetrahydropyrazolo[1,5-a] pyrimidine-3-carboxamide]	< 6.00	< 6.00
COc1ccc(F)cc1C(=O)NCc1ccc(-c2nn(CC3CC(O)CCN3C(=O)n3cncn3)c3ncnc(N)c23)cc1 (stereo not drawn) [Compound 298, N-(4-(4-amino-1-((4-hydroxy-1-(1H-1,2,4-triazole-1-carbonyl)piperidin-2-yl)methyl)-1H-pyrazolo[3,4-d]pyrimidin-3-yl)benzyl)-5-fluoro-2-methoxybenzamide]	< 6.00	< 6.00
CN(C(=O)n1cncn1)[C@@H]1CCCC[C@H](n2nc(-c3ccc(Oc4ccccc4)cc3)c(C(N)=O)c2N)C1 [Compound 182, N-((1R,3S)-3-(5-amino-4-carbamoyl-3-(4-phenoxyphenyl)-1H-pyrazol-1-yl)cycloheptyl)-N-methyl-1H-1,2,4-triazole-1-carboxamide]	≥ 6.00	≥ 6.00
CN(C(=O)n1cncn1)[C@H]1CCCC[C@H](n2nc(-c3ccc(Oc4ccccc4)cc3)c(C(N)=O)c2N)C1 [Compound 252, N-((1S,3S)-3-(5-amino-4-carbamoyl-3-(4-phenoxyphenyl)-1H-pyrazol-1-yl)cycloheptyl)-N-methyl-1H-1,2,4-triazole-1-carboxamide]	≥ 6.00	≥ 6.00
CCN(C(=O)n1cncn1)C1CCCC(n2nc(-c3ccc(Oc4ccccc4)cc3)c3c(N)ncnc32)C1 (stereo not drawn) [Compound 109, N-(3-(4-amino-3-(4-phenoxyphenyl)-1H-pyrazolo[3,4-d]pyrimidin-1-yl)cyclohexyl)-N-ethyl-1H-1,2,4-triazole-1-carboxamide]	≥ 6.00	≥ 6.00
CC(C1CCNc2c(C(N)=O)c(-c3ccc(Oc4ccccc4)cc3)nn21)N(C)C(=O)n1cncn1 (stereo not drawn) [Compound 205, 7-(1-(N-methyl-1H-1,2,4-triazole-1-carboxamido)ethyl)-2-(4-phenoxy-phenyl)-4,5,6,7-tetrahydro-pyrazolo[1,5-a]pyrimidine-3-carboxamide]	≥ 6.00	≥ 6.00

Reference: US20240294531A1, “COVALENT HETEROCYCLES AND USES THEREOF” (Kumquat Biosciences Inc., priority 2022, published 2024)
